Experiments:
[1] = system: Mycobacterium tuberculosis; assay: Inhibition of multidrug resistance efflux pump Rv1258c in Mycobacterium tuberculosis H37Rv assessed as potentiation of rifampicin-induced antimycobacterial activity by MABA method based Chequerboard synergy assay
[2] = system: Mycobacterium tuberculosis; assay: Inhibition of multidrug resistance efflux pump Rv1258c in Mycobacterium tuberculosis H37Rv assessed as reduction in rifampicin MIC99 by MABA method
[3] = system: Mycobacterium tuberculosis; assay: Inhibition of multidrug resistance efflux pump Rv1258c in Mycobacterium tuberculosis H37Rv assessed as rifampicin MIC99 by MABA method

Row | SMILES | fractional inhibitory concentration index (FICI) [1] | fold change (FC) [2] | MIC99 [3]
1 | COc1ccc(CCN(C)CCCC(C#N)c2ccc(OC)c(OC)c2)cc1OC (centres undefined) | 1 | 2 | 4.2 nM
2 | COc1ccc(CCN(CCCC(C#N)(c2ccc(OC)c(OC)c2)C(C)C)C2CC2)cc1OC (centres undefined) | 0.75 | 2 | 4.2 nM
3 | COc1ccc(C(C#N)(CCCN2CCN(c3ccccn3)CC2)C(C)C)cc1OC (centres undefined) | 0.75 | 4 | 2.1 nM
4 | COc1ccc(C(C#N)(CCCN2CCC(O)(c3ccccc3)CC2)C(C)C)cc1OC (centres undefined) | 1 | 2 | 4.2 nM
5 | COc1ccc(C(C#N)(CCCN2CCC(O)CC2)C(C)C)cc1OC (centres undefined) | 1.5 |  | 8.3 nM
6 | CCN(CCCC(C#N)(c1ccc(OC)c(OC)c1)C(C)C)CCc1ccc(OC)c(OC)c1 (centres undefined) | 1 |  | 8.3 nM
7 | COc1ccc(C(C#N)(CCCN2CCN(c3ccccc3F)CC2)C(C)C)cc1OC (centres undefined) | 1.5 |  | 8.3 nM
8 | COc1ccc(C(C#N)(CCCN2CCCCC2)C(C)C)cc1OC (centres undefined) | 1 | 2 | 4.2 nM
9 | CCC(C#N)(CCCN(C)CCc1ccc(OC)c(OC)c1)c1ccc(OC)c(OC)c1 (centres undefined) | 0.75 | 4 | 2.1 nM
10 | COc1ccc(CCN(C)CCCC(C)(C#N)c2ccc(OC)c(OC)c2)cc1OC (centres undefined) | 1 | 2 | 4.2 nM
11 | COc1ccc(CCN(C)CCCC(C#N)(c2ccc(OC)c(OC)c2)C2CCCC2)cc1OC (centres undefined) | 1 | 2 | 4.2 nM
12 | CCCC(C#N)(CCCN(C)CCc1ccc(OC)c(OC)c1)c1ccc(OC)c(OC)c1 (centres undefined) | 0.75 | 4 | 2.1 nM
13 | COc1ccc(CCN(CCCC(C#N)(c2ccc(OC)c(OC)c2)C(C)C)Cc2ccccc2)cc1OC (centres undefined) | 0.3 | 4 | 2.1 nM
14 | COc1ccc(C(C#N)(CCCN2CCOCC2)C(C)C)cc1OC (centres undefined) | 1.5 |  | 8.3 nM
15 | COc1ccc(N(C)CCCC(C#N)(c2ccc(OC)c(OC)c2)C(C)C)cc1OC (centres undefined) |  |  | 8.3 nM
16 | COc1ccc(CCN(C)CCCC(C#N)(c2ccc(OC)c(OC)c2)C2CCCCC2)cc1OC (centres undefined) | 1.25 | 4 | 2.1 nM
17 | COc1ccc(CN(C)CCCC(C#N)(c2ccc(OC)c(OC)c2)C(C)C)cc1OC (centres undefined) |  |  | 8.3 nM
18 | CCCN(CCCC(C#N)(c1ccc(OC)c(OC)c1)C(C)C)CCc1ccc(OC)c(OC)c1 (centres undefined) | 0.78 |  | 8.3 nM
19 | COc1ccc(CCNCCCC(C#N)(c2ccc(OC)c(OC)c2)C(C)C)cc1OC (centres undefined) [NORVERAPAMIL] | 0.56 | 2 | 4.2 nM
20 | COc1ccc(C(C#N)(CCCN2CCC(N3CCCCC3)CC2)C(C)C)cc1OC (centres undefined) | 1 | 2 | 4.2 nM
21 | COc1ccc(C(C#N)(CCCN2CCN(c3ccccc3)CC2)C(C)C)cc1OC (centres undefined) | 0.75 | 2 | 4.2 nM

From ChEMBL document CHEMBL3352715, “Synthesis of new verapamil analogues and their evaluation in combination with rifampicin against Mycobacterium tuberculosis and molecular docking studies in the binding site of efflux protein Rv1258c” (2014)
